These results are taken from patent US20230107642A1 (Erasca, Inc., priority 2020, published 2023).

The first experiment deals with T1, Cys12 of the KRAS 4B G12C protein (Homo sapiens, UniProt P01116, G12C).
T1 construct: This protein contained 188 amino acids in total, including an N-terminal 6-Histidine tag; made in house; host or cells: E. coli BL21
Kind of experiment: In vitro covalent adduct formation (CAF) assay, LC-MS intact mass. The format is binding. To be noted: 10 uM compound, 60 min. In a few lines:
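GDP-loaded (>95%) His-TEV-tagged KRAS 4B G12C (residues 1–169), 5 μM in TBS pH 7.4, incubated with 10 μM compound (4% DMSO) at 22° C for one hour. Intact-protein LC-MS gave free:adduct ratios, reported as percent protein modified; duplicate runs.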
Take `C=CC(=O)N1C[C@H](C)N(c2nc(=O)n3c4c(c(-c5ccc(F)cc5F)c(C(F)(F)F)cc24)SC[C@@H]3COCOC)C[C@H]1C` (atropisomer, axis not shown) [Example 1326, (3S,10S)-7-((2S,5R)-4-acryloyl-3,5-dimethylpiperazin-1-yl)-10-(2,4-difluorophenyl)-3-((methoxymethoxy)methyl)-9-(trifluoromethyl)-2,3-dihydro-5H-[1,4]thiazino[2,3,4-ij]quinazolin-5-one]: the “% CAF 10 uM @ 60 min” value came to 82.3%. For `C=CC(=O)N1[C@H](C)CN(c2nc(=O)n3c4c(c(-c5ccc(F)c(Cl)c5)c(C(F)(F)F)cc24)SC[C@@H]3COCOC)C[C@@H]1C` [Example 1359, (S)-7-((3S,5R)-4-acryloyl-3,5-dimethylpiperazin-1-yl)-10-(3-chloro-4-fluorophenyl)-3-((methoxymethoxy)methyl)-9-(trifluoromethyl)-2,3-dihydro-5H-[1,4]thiazino[2,3,4-ij]quinazolin-5-one], the “% CAF 10 uM @ 60 min” value is reported as 74.6%.

For `C=CC(=O)N1[C@H](C)CN(c2nc(=O)n3c4c(c(-c5ccc(F)cc5)c(C(F)(F)F)cc24)SC[C@@H]3CN2CCN(CC)CC2)C[C@@H]1C` [Example 1344, (S)-7-((3S,5R)-4-acryloyl-3,5-dimethylpiperazin-1-yl)-3-((4-ethylpiperazin-1-yl)methyl)-10-(4-fluorophenyl)-9-(trifluoromethyl)-2,3-dihydro-5H-[1,4]thiazino[2,3,4-ij]quinazolin-5-one], the “% CAF 10 uM @ 60 min” value was found to be 96%.

As for `C=CC(=O)N1[C@H](C)CN(c2nc(=O)n3c4c(c(-c5ccc(F)cc5F)c(C(F)(F)F)cc24)SC[C@@H]3CN2C[C@@H]3C[C@H]2CO3)C[C@@H]1C` (atropisomer, axis not shown) [Example 1301, (3S)-3-((1S,4S)-2-oxa-5-azabicyclo[2.2.1]heptan-5-ylmethyl)-7-((3S,5R)-4-acryloyl-3,5-dimethylpiperazin-1-yl)-10-(2,4-difluorophenyl)-9-(trifluoromethyl)-2H-[1,4]thiazino[2,3,4-ij]quinazolin-5(3H)-one], the “% CAF 10 uM @ 60 min” value is 96.4%.

In the case of `C=CC(=O)N1[C@H](C)CN(c2nc(=O)n3c4c(c(-c5ccc(F)cc5F)c(C(F)(F)F)cc24)SC[C@@H]3COCOC)C[C@@H]1C` (atropisomer, axis not shown) [Example 1320, (3S,10R)-7-((3S,5R)-4-acryloyl-3,5-dimethylpiperazin-1-yl)-10-(2,4-difluorophenyl)-3-((methoxymethoxy)methyl)-9-(trifluoromethyl)-2,3-dihydro-5H-[1,4]thiazino[2,3,4-ij]quinazolin-5-one], the “% CAF 10 uM @ 60 min” value is reported as 97.4%. Same read-out and setting: next, `C=CC(=O)N1[C@H](C)CN(c2nc(=O)n3c4c(c(-c5cc(O)c(F)cc5F)c(C(F)(F)F)cc24)SC[C@@H]3COC)C[C@@H]1C` [Example 1444, (3S)-7-((3S,5R)-4-acryloyl-3,5-dimethylpiperazin-1-yl)-10-(2,4-difluoro-5-hydroxyphenyl)-3-(methoxymethyl)-9-(trifluoromethyl)-2,3-dihydro-5H-[1,4]thiazino[2,3,4-ij]quinazolin-5-one]: 90%; `C=CC(=O)N1[C@H](C)CN(c2nc(=O)n3c4c(c(-c5cc(Cl)c(F)cc5F)c(C(F)(F)F)cc24)SC[C@@H]3CN2CCN(CC)CC2)C[C@@H]1C` (atropisomer, axis not shown) [Example 1340, (3S,10S)-7-((3S,5R)-4-acryloyl-3,5-dimethylpiperazin-1-yl)-10-(5-chloro-2,4-difluorophenyl)-3-((4-ethylpiperazin-1-yl)methyl)-9-(trifluoromethyl)-2,3-dihydro-5H-[1,4]thiazino[2,3,4-ij]quinazolin-5-one]: 89.4%; `C=CC(=O)N1[C@H](C)CN(c2nc(=O)n3c4c(c(-c5ccc(F)c(Cl)c5)c(C(F)(F)F)cc24)SC[C@@H]3COC)C[C@@H]1C` [Example 1316, (S)-7-((3S,5R)-4-acryloyl-3,5-dimethylpiperazin-1-yl)-10-(3-chloro-4-fluorophenyl)-3-(methoxymethyl)-9-(trifluoromethyl)-2,3-dihydro-5H-[1,4]thiazino[2,3,4-ij]quinazolin-5-one]: 96%. Turning to `C=CC(=O)N1CCN(c2nc(=O)n3c4c(c(-c5cc(Cl)c(F)cc5F)c(C(F)(F)F)cc24)SC[C@@H]3COCOC)CC1` (atropisomer, axis not shown) [Example 1364], the “% CAF 10 uM @ 60 min” value was 98%.

`C=CC(=O)N1[C@H](C)CN(c2nc(=O)n3c4c(c(-c5ccc(F)c6cnn(C)c56)c(C(F)(F)F)cc24)SC[C@@H]3COC)C[C@@H]1C` (atropisomer, axis not shown) [Example 1366a, (3S,10S)-7-((3S,5R)-4-acryloyl-3,5-dimethylpiperazin-1-yl)-10-(4-fluoro-1-methyl-1H-indazol-7-yl)-3-(methoxymethyl)-9-(trifluoromethyl)-2,3-dihydro-5H-[1,4]thiazino[2,3,4-ij]quinazolin-5-one]: the “% CAF 10 uM @ 60 min” value was determined as 46.8%. Same read-out and setting: in the case of `C=CC(=O)N1C[C@H](C)N(c2nc(=O)n3c4c(c(-c5cccc6cnn(C)c56)c(C(F)(F)F)cc24)SC[C@@H]3CN2CCN(CC)CC2)C[C@H]1C` (atropisomer, axis not shown) [Example 1381, (3S,10R)-7-((2S,5R)-4-acryloyl-2,5-dimethylpiperazin-1-yl)-3-((4-ethylpiperazin-1-yl)methyl)-10-(1-methyl-1H-indazol-7-yl)-9-(trifluoromethyl)-2,3-dihydro-5H-[1,4]thiazino[2,3,4-ij]quinazolin-5-one] it was 19.1%.

Staying with this experiment, now noted: 10 uM compound, 60 min incubation.
Turning to `C=CC(=O)N1C[C@H](C)N(c2nc(=O)n3c4c(c(-c5cccc6cnn(C)c56)c(C(F)(F)F)cc24)SC[C@@H]3COC)C[C@H]1C` (atropisomer, axis not shown) [Example 1101, (3S,10R)-7-((2S,5R)-4-acryloyl-2,5-dimethylpiperazin-1-yl)-3-(methoxymethyl)-10-(1-methyl-1H-indazol-7-yl)-9-(trifluoromethyl)-2,3-dihydro-5H-[1,4]thiazino[2,3,4-ij]quinazolin-5-one], the “% CAF 10 uM @ 60 min” value amounted to 0%. Turning to `C=CC(=O)N1[C@H](C)CN(c2nc(=O)n3c4c(c(-c5ccc(F)c6cnn(C)c56)c(C(F)(F)F)cc24)SC[C@@H]3COC)C[C@@H]1C` (atropisomer, axis not shown) [Example 1126, (3S,10S)-7-((3S,5R)-4-acryloyl-3,5-dimethylpiperazin-1-yl)-10-(4-fluoro-1-methyl-1H-indazol-7-yl)-3-(methoxymethyl)-9-(trifluoromethyl)-2,3-dihydro-5H-[1,4]thiazino [2,3,4-ij]quinazolin-5-one], the “% CAF 10 uM @ 60 min” value is 46.8%. As for `C=CC(=O)N1CCN(c2nc(=O)n3c4c(c(-c5ccc(F)cc5)c(C(F)(F)F)cc24)SC[C@@H]3COC)CC1` [Example 1106, (S)-7-(4-acryloylpiperazin-1-yl)-10-(4-fluorophenyl)-3-(methoxymethyl)-9-(trifluoromethyl)-2,3-dihydro-5H-[1,4]thiazino[2,3,4-ij]quinazolin-5-one], the “% CAF 10 uM @ 60 min” value was 98.2%.

The same experiment, now with this note: 10 μM compound, after 1 hour.
Regarding `O=C1CC2CN(c3nc(=O)n4c5c(c(-c6ccc(F)cc6F)c(C(F)(F)F)cc35)SCCC4)CC(C1)N2C(=O)/C=C/CF` [Example 1200, (E)-11-(2,4-difluorophenyl)-8-(9-(4-fluorobut-2-enoyl)-7-oxo-3,9-diazabicyclo[3.3.1]nonan-3-yl)-10-(trifluoromethyl)-3,4-dihydro-2H,6H-[1,4]thiazepino[2,3,4-ij]quinazolin-6-one], the “CAF (% after 1 hour)” value was 73%. Take `C=CC(=O)N1[C@H](C)CN(c2nc(=O)n3c4c(c(-c5ccc(F)cc5)c(C(F)(F)F)cc24)SC[C@@H](OCC(N)=O)C3)C[C@@H]1C` [Example 1233, 2-(((S)-8-((3S,5R)-4-acryloyl-3,5-dimethylpiperazin-1-yl)-11-(4-fluorophenyl)-6-oxo-10-(trifluoromethyl)-3,4-dihydro-2H,6H-[1,4]thiazepino[2,3,4-ij]quinazolin-3-yl)oxy)acetamide]: the “CAF (% after 1 hour)” value turned out to be 95%.

Still in this experiment, the particulars now being: after 60 min.
Take `C=CC(=O)N1[C@H](C)CN(c2nc(=O)n3c4c(c(-c5ccc(F)cc5F)c(C(F)(F)F)cc24)SC[C@H](OCCOC)C3)C[C@@H]1C` [Example 1026, (3R)-8-((3S,5R)-4-acryloyl-3,5-dimethylpiperazin-1-yl)-11-(2,4-difluorophenyl)-3-(2-methoxyethoxy)-10-(trifluoromethyl)-3,4-dihydro-2H,6H-[1,4]thiazepino[2,3,4-ij]quinazolin-6-one]: the “CAF (% binding after 60 min)” value amounted to 95%. As to `C=CC(=O)N1CCN(c2nc(=O)n3c4c(c(-c5cc(Cl)c(F)cc5F)c(C(F)(F)F)cc24)SC[C@H](OCCOC)C3)CC1` [Example 1022, (3R)-8-(4-acryloylpiperazin-1-yl)-11-(5-chloro-2,4-difluorophenyl)-3-(2-methoxyethoxy)-10-(trifluoromethyl)-3,4-dihydro-2H,6H-[1,4]thiazepino[2,3,4-ij]quinazolin-6-one], the “CAF (% binding after 60 min)” value was determined as 85%.

With `C=CC(=O)N1[C@H](C)CN(c2nc(=O)n3c4c(c(-c5cc(Cl)c(F)cc5F)c(C(F)(F)F)cc24)SC[C@@H](OCCOC)C3)C[C@@H]1C` [Example 1031, (3S)-8-((3S,5R)-4-acryloyl-3,5-dimethylpiperazin-1-yl)-11-(5-chloro-2,4-difluorophenyl)-3-(2-methoxyethoxy)-10-(trifluoromethyl)-3,4-dihydro-2H,6H-[1,4]thiazepino[2,3,4-ij]quinazolin-6-one], the “CAF (% binding after 60 min)” value is 95%. On the same count and under the same terms, next, `C=CC(=O)N1[C@H](C)CN(c2nc(=O)n3c4c(c(-c5ccc(F)cc5F)c(C(F)(F)F)cc24)SC[C@H](N(C)C)C3)C[C@@H]1C` [Example 1001, (3R)-8-((3S,5R)-4-acryloyl-3,5-dimethylpiperazin-1-yl)-11-(2,4-difluorophenyl)-3-(dimethylamino)-10-(trifluoromethyl)-3,4-dihydro-2H,6H-[1,4]thiazepino[2,3,4-ij]quinazolin-6-one]: 84%.
